These results are taken from paper PMC4729137, “Functional analysis of androgen receptor mutations that confer anti-androgen resistance identified in circulating cell-free DNA from prostate cancer patients” (Genome Biology, 2016).

The target in assay [1] is T1, WT-AR (Homo sapiens, UniProt P10275).
T1 sequence (P10275 1-920): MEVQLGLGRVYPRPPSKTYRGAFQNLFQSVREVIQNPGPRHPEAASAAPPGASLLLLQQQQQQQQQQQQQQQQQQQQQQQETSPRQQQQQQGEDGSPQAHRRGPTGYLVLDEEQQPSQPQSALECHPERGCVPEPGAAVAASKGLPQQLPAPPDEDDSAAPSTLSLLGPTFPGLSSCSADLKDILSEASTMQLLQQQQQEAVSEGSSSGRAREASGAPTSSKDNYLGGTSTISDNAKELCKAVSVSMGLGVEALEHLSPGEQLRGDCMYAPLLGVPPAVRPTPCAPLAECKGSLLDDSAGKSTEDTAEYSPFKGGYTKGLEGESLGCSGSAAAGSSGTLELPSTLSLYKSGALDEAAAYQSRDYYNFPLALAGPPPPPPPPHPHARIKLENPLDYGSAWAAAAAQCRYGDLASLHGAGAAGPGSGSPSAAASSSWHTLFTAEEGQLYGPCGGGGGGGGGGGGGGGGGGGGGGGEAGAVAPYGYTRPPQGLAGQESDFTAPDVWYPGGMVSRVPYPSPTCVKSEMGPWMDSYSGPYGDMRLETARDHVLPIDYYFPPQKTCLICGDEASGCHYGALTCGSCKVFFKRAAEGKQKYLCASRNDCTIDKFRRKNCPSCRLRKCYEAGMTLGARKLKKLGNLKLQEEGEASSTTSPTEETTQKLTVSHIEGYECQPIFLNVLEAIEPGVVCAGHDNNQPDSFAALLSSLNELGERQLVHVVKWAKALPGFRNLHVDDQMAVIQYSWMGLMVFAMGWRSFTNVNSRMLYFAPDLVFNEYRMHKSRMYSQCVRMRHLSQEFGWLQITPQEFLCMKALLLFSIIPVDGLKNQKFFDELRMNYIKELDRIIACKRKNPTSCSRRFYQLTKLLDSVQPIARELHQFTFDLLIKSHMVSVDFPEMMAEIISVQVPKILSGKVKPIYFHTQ
The note with it: concentrations up to 500 nM.

Assay [2] concerns the target T2, H875Y/T878A-AR (Homo sapiens, UniProt P10275, H875Y/T878A).
T2 sequence (P10275 1-920 H875Y/T878A): T1 sequence (P10275 1-920) with H875Y, T878A
The experiment in a line: cell-based.

Where a chain is given by its changes, count along the chain named. pEC50: −log10 of the molar value. Entries after “also recorded” stand apart in the source; their conditions may differ.

With `C[C@]12CCC(=O)C=C1CC[C@@H]1[C@@H]2[C@@H](O)C[C@@]2(C)[C@H]1CC[C@]2(O)C(=O)CO` [hydrocortisone], the “Transcriptional activation of wild-type AR (in words)” value in assay [1] is on record as “not activated; also recorded: did not exhibit any significant transcriptional activation”. Moreover, the pEC50 in assay [2] was 6.98.
